Measured values from patent US8088930B2, “Benzimidazole derivatives” (Hoffmann-La Roche Inc., priority 2008, dated 2012).
pIC50: −log10 of the molar value.

target: T1, FXR ligand binding domain (GST-FXR LBD fusion protein, human FXR aa 193-473) (Homo sapiens, UniProt Q96RI1); assay: Radioligand binding assay (scintillation proximity, radioligand displacement); details: 40 nM GST-FXR LBD on SPA beads, test compound 6×10^−9 M to 2.5×10^−5 M, read-out: h-IC50 Binding
T1 construct: fused on or other part: Glutathione-S-transferase (GST) fused N-terminally to the FXR LBD, used to capture the protein on glutathione SPA beads
T1 sequence (Q96RI1 211-486 limits assumed): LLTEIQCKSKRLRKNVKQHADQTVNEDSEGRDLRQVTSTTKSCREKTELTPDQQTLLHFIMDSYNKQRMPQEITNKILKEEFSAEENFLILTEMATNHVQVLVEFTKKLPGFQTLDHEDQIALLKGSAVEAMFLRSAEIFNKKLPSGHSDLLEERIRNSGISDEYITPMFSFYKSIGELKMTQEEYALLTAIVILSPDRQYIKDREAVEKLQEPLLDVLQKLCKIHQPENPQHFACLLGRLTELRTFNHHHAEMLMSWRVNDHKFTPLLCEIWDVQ
How it was run: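 40 nM GST-FXR LBD, E. coli-expressed, bound to glutathione yttrium silicate SPA beads in 50 mM Hepes pH 7.4, 10 mM NaCl, 5 mM MgCl2, 0.01% CHAPS. Test compounds displace radioligand (e.g. 20 nM benzimidazolyl-acetamide ligand); bound ligand measured by scintillation proximity counting.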

SMILES | pIC50
O=C(O)c1ccc(OCC(C2CCCCC2)n2c(-c3ccc(Cl)cc3)nc3ccccc32)c(F)c1 (stereo not shown) [Example 33, 4-{2-[2-(4-Chloro-phenyl)-benzoimidazol-1-yl]-2-cyclohexyl-ethoxy}-3-fluoro-benzoic acid] | 6.30
Fc1cc2nc(-c3ccc(Cl)cc3)n(C(COc3ccccc3)C3CCCCC3)c2cc1F (stereo not shown) [Example 38, 2-(4-Chloro-phenyl)-1-(1-cyclohexyl-2-phenoxy-ethyl)-5,6-difluoro-1H-benzoimidazole] | 7.00
COc1ccc(-c2nc3cc(F)c(F)cc3n2C(CCc2ccc(C(=O)O)cc2)C2CCCCC2)c(OC)n1 (stereo not shown) [Example 145, 4-{3-Cyclohexyl-3-[2-(2,6-dimethoxy-pyridin-3-yl)-5,6-difluoro-benzoimidazol-1-yl]-propyl}-benzoic acid] | 9.52
O=C(O)C1(Oc2ccc(OCC(C3CCCCC3)n3c(-c4ccc(Cl)cc4)nc4cc(F)c(F)cc43)cc2)CCC1 (stereo not shown) [Example 117, 1-(4-{2-[2-(4-Chloro-phenyl)-5,6-difluoro-benzoimidazol-1-yl]-2-cyclohexyl-ethoxy}-phenoxy)-cyclobutanecarboxylic acid] | 7.40
O=C(O)c1ccc(OCC(C2CCCCC2)n2c(-c3ccc(Cl)cc3)nc3cc(F)c(F)cc32)cn1 (stereo not shown) [Example 18, 5-{2-[2-(4-Chloro-phenyl)-5,6-difluoro-benzoimidazol-1-yl]-2-cyclohexyl-ethoxy}-pyridine-2-carboxylic acid] | 5.89
Cc1cc(C(=O)O)cc(C)c1OCC(C1CCCCC1)n1c(-c2ccc(Cl)cc2)nc2ccccc21 (single isomer, unassigned; (-)) [Example 106, (−)-4-{2-[2-(4-Chloro-phenyl)-benzoimidazol-1-yl]-2-cyclohexyl-ethoxy}-3,5-dimethyl-benzoic acid] | 7.00
O=C(O)c1ccccc1OCC(C1CCCCC1)n1c(-c2ccc(Cl)cc2)nc2cc(F)c(F)cc21 (stereo not shown) [Example 14, 2-{2-[2-(4-Chloro-phenyl)-5,6-difluoro-benzoimidazol-1-yl]-2-cyclohexyl-ethoxy}-benzoic acid] | 5.70
O=C(O)c1ccc(COCC(C2CCCCC2)n2c(-c3ccc(Cl)cc3)nc3cc(F)c(F)cc32)nc1 (stereo not shown) [Example 67, 6-{2-[2-(4-Chloro-phenyl)-5,6-difluoro-benzoimidazol-1-yl]-2-cyclohexyl-ethoxymethyl}-nicotinic acid] | 5.60
CC(C)(Oc1ccc(OCC(C2CCCCC2)n2c(-c3ccc(Cl)cc3)nc3cc(F)c(F)cc32)nc1)C(=O)O (single isomer, unassigned; (-)) [Example 49, (−)-2-(6-{2-[2-(4-Chloro-phenyl)-5,6-difluoro-benzoimidazol-1-yl]-2-cyclohexyl-ethoxy}-pyridin-3-yloxy)-2-methyl-propionic acid] | 6.40
Fc1cc2nc(-c3ccc(Cl)cc3)n(C(COc3ccncc3)C3CCCCC3)c2cc1F (stereo not shown) [Example 36, 2-(4-Chloro-phenyl)-1-[1-cyclohexyl-2-(pyridin-4-yloxy)-ethyl]-5,6-difluoro-1H-benzoimidazole] | 7.05
O=C(O)c1ccc(OCC(C2CCCCC2)n2c(-c3ccc(Cl)cc3)nc3cc(F)c(F)cc32)cc1 (single isomer, unassigned; (-)) [Example 6, (−)-4-{2-[2-(4-Chloro-phenyl)-5,6-difluoro-benzoimidazol-1-yl]-2-cyclohexyl-ethoxy}-benzoic acid] | 7.05
O=C(O)C1(Oc2ccc(OCC(C3CCCCC3)n3c(-c4ccc(Cl)cc4)nc4cc(F)c(F)cc43)cc2)CCC1 (single isomer, unassigned; (+)) [Example 118, (+)-1-(4-{2-[2-(4-Chloro-phenyl)-5,6-difluoro-benzoimidazol-1-yl]-2-cyclohexyl-ethoxy}-phenoxy)-cyclobutanecarboxylic acid] | 6.51
O=C(O)COc1ccc(OCC(C2CCCCC2)n2c(-c3ccc(Cl)cc3)nc3cc(F)c(F)cc32)nc1 (stereo not shown) [Example 45, (6-{2-[2-(4-Chloro-phenyl)-5,6-difluoro-benzoimidazol-1-yl]-2-cyclohexyl-ethoxy}-pyridin-3-yloxy)-acetic acid] | 7.70
O=C(O)c1cc(F)c(OCC(C2CCCCC2)n2c(-c3ccc(Cl)cc3)nc3cc(F)c(F)cc32)c(F)c1 (single isomer, unassigned; (+)) [Example 87, (+)-4-{2-[2-(4-Chloro-phenyl)-5,6-difluoro-benzoimidazol-1-yl]-2-cyclohexyl-ethoxy}-3,5-difluoro-benzoic acid] | 7.40
CC(C)(Oc1c(F)cc(C(=O)O)cc1F)C(C1CCCCC1)n1c(-c2ccc(Cl)cc2)nc2cc(F)c(F)cc21 (single isomer, unassigned; (+)) [Example 116, (+)-4-{2-[2-(4-Chloro-phenyl)-5,6-difluoro-benzoimidazol-1-yl]-2-cyclohexyl-1,1-dimethyl-ethoxy}-3,5-difluoro-benzoic acid] | 8.70
O=C(O)c1cc(F)c(OCC(C2CCCCC2)n2c(-c3ccc(Cl)cc3)nc3cc(F)c(F)cc32)c(Cl)c1 (single isomer, unassigned; (-)) [Example 77, (−)-3-Chloro-4-{2-[2-(4-chloro-phenyl)-5,6-difluoro-benzoimidazol-1-yl]-2-cyclohexyl-ethoxy}-5-fluoro-benzoic acid] | 8.52
O=C(O)c1cc(F)c(OCC(C2CCCCC2)n2c(-c3ccc(Cl)cc3)nc3ccccc32)c(F)c1 (single isomer, unassigned; (-)) [Example 104, (−)-4-{2-[2-(4-Chloro-phenyl)-benzoimidazol-1-yl]-2-cyclohexyl-ethoxy}-3,5-difluoro-benzoic acid] | 7.30

Now from value to molecule:

pIC50 | SMILES
6.40 | O=C(O)c1ccnc(OCC(C2CCCCC2)n2c(-c3ccc(Cl)cc3)nc3cc(F)c(F)cc32)c1 (stereo not shown) [Example 37, 2-{2-[2-(4-Chloro-phenyl)-5,6-difluoro-benzoimidazol-1-yl]-2-cyclohexyl-ethoxy}-isonicotinic acid]
6.70 | Cc1c(OCC(C2CCCCC2)n2c(-c3ccc(Cl)cc3)nc3cc(F)c(F)cc32)cccc1C(=O)O (stereo not shown) [Example 17, 3-{2-[2-(4-Chloro-phenyl)-5,6-difluoro-benzoimidazol-1-yl]-2-cyclohexyl-ethoxy}-2-methyl-benzoic acid]
6.70 | CC(C)(Oc1ccc(OCC(C2CCCCC2)n2c(-c3ccc(Cl)cc3)nc3cc(F)c(F)cc32)cc1)C(=O)O (stereo not shown) [Example 90, 2-(4-{2-[2-(4-Chloro-phenyl)-5,6-difluoro-benzoimidazol-1-yl]-2-cyclohexyl-ethoxy}-phenoxy)-2-methyl-propionic acid]
7.00 | O=C(O)c1cc(F)c(OCC(C2CCCCC2)n2c(-c3ccc(Cl)cc3)nc3ccccc32)c(F)c1 (single isomer, unassigned; (+)) [Example 103, (+)-4-{2-[2-(4-Chloro-phenyl)-benzoimidazol-1-yl]-2-cyclohexyl-ethoxy}-3,5-difluoro-benzoic acid]
7.10 | O=C(O)C1(Oc2ccc(OCC(C3CCCCC3)n3c(-c4ccc(Cl)cc4)nc4cc(F)c(F)cc43)nc2)CC1 (single isomer, unassigned; (+)) [Example 52, (+)-1-(6-{2-[2-(4-Chloro-phenyl)-5,6-difluoro-benzoimidazol-1-yl]-2-cyclohexyl-ethoxy}-pyridin-3-yloxy)-cyclopropanecarboxylic acid]
7.15 | O=C(O)c1cccc(OCC(C2CCCCC2)n2c(-c3ccc(Cl)cc3)nc3cc(F)c(F)cc32)c1 (stereo not shown) [Example 15, 3-{2-[2-(4-Chloro-phenyl)-5,6-difluoro-benzoimidazol-1-yl]-2-cyclohexyl-ethoxy}-benzoic acid]
7.30 | O=C(O)c1ccc(OCC(C2CCCCC2)n2c(-c3ccc(Cl)cc3)nc3cc(F)c(F)cc32)nc1 (stereo not shown) [Example 19, 6-{2-[2-(4-Chloro-phenyl)-5,6-difluoro-benzoimidazol-1-yl]-2-cyclohexyl-ethoxy}-nicotinic acid]
7.70 | O=C(O)C1(Oc2ccc(OCC(C3CCCCC3)n3c(-c4ccc(Cl)cc4)nc4cc(F)c(F)cc43)cc2)CC1 (single isomer, unassigned; (-)) [Example 121, (−)-1-(4-{2-[2-(4-Chloro-phenyl)-5,6-difluoro-benzoimidazol-1-yl]-2-cyclohexyl-ethoxy}-phenoxy)-cyclopropanecarboxylic acid]
8.52 | Fc1cc2nc(-c3ccc(Cl)cc3)n(C(CNc3ccc(-c4nnn[nH]4)cc3)C3CCCCC3)c2cc1F (stereo not shown) [Example 139, {2-[2-(4-Chloro-phenyl)-5,6-difluoro-benzoimidazol-1-yl]-2-cyclohexyl-ethyl}-[4-(1H-tetrazol-5-yl)-phenyl]-amine]

same assay, conditions: h-IC50 Binding, 40 nM GST-FXR LBD on SPA beads, test compound 6×10^−9 M to 2.5×10^−5 M

SMILES | pIC50
O=C(O)c1ccc(OCC(C2CCCCC2)n2c(-c3ccc(Cl)cc3)nc3cc(F)c(F)cc32)c(Cl)c1 (stereo not shown) [Example 10, 3-Chloro-4-{2-[2-(4-chloro-phenyl)-5,6-difluoro-benzoimidazol-1-yl]-2-cyclohexyl-ethoxy}-benzoic acid] | 7.52
O=C(O)c1ccc(OCC(C2CCCCC2)n2c(-c3ccc(Cl)cc3)nc3cc(F)c(F)cc32)cc1 (single isomer, unassigned; (+)) [Example 5, (+)-4-{2-[2-(4-Chloro-phenyl)-5,6-difluoro-benzoimidazol-1-yl]-2-cyclohexyl-ethoxy}-benzoic acid] | 7.40
